From ChEMBL document CHEMBL3596195, “Novel cajaninstilbene acid derivatives as antibacterial agents” (Eur J Med Chem, 2015)
In brackets after ≈: the same amount, converted by molar mass.

What was measured:
Format in all cases: functional
Staphylococcus aureus [1] = experiment: Antibacterial activity against methicillin-resistant Staphylococcus aureus ATCC513045 assessed as bacterial growth inhibition after 24 hrs by broth dilution method; details: ATCC513045, 24 h
Staphylococcus aureus [2] = experiment: Antibacterial activity against methicillin-resistant Staphylococcus aureus ATCC523512 assessed as bacterial growth inhibition after 24 hrs by broth dilution method; details: ATCC523512, 24 h
Staphylococcus aureus [3] = experiment: Antibacterial activity against methicillin-resistant Staphylococcus aureus ATCC51033 assessed as bacterial growth inhibition after 24 hrs by broth dilution method; details: ATCC51033, 24 h
[4] = tested on: Staphylococcus epidermidis; experiment: Antibacterial activity against Staphylococcus epidermidis ATCC12228 assessed as bacterial growth inhibition after 24 hrs by broth dilution method; details: ATCC12228, 24 h
Staphylococcus aureus [5] = experiment: Antibacterial activity against methicillin-resistant Staphylococcus aureus ATCC43300 assessed as bacterial growth inhibition after 24 hrs by broth dilution method; details: ATCC43300, 24 h
Bacillus subtilis = experiment: Antibacterial activity against Bacillus subtilis ATCC6633 assessed as bacterial growth inhibition after 24 hrs by broth dilution method; details: ATCC6633, 24 h
Escherichia coli = experiment: Antibacterial activity against Escherichia coli ATCC25922 assessed as bacterial growth inhibition after 24 hrs by broth dilution method; details: ATCC25922, 24 h
Staphylococcus aureus [6] = experiment: Antibacterial activity against methicillin-resistant Staphylococcus aureus ATCC515992 assessed as bacterial growth inhibition after 24 hrs by broth dilution method; details: ATCC515992, 24 h
Staphylococcus aureus [7] = experiment: Antibacterial activity against methicillin-resistant Staphylococcus aureus ATCC425055 assessed as bacterial growth inhibition after 24 hrs by broth dilution method; details: ATCC425055, 24 h
Proteus vulgaris = experiment: Antibacterial activity against Proteus vulgaris ATCC49101 assessed as bacterial growth inhibition after 24 hrs by broth dilution method; details: ATCC49101, 24 h
Staphylococcus aureus [8] = experiment: Antibacterial activity against methicillin-resistant Staphylococcus aureus ATCC52056 assessed as bacterial growth inhibition after 24 hrs by broth dilution method; details: ATCC52056, 24 h
Staphylococcus aureus [9] = experiment: Antibacterial activity against methicillin-resistant Staphylococcus aureus ATCC62202 assessed as bacterial growth inhibition after 24 hrs by broth dilution method; details: ATCC62202, 24 h
Staphylococcus aureus [10] = experiment: Antibacterial activity against methicillin-resistant Staphylococcus aureus ATCC510019 assessed as bacterial growth inhibition after 24 hrs by broth dilution method; details: ATCC510019, 24 h
Staphylococcus aureus [11] = experiment: Antibacterial activity against Staphylococcus aureus ATCC25923 assessed as bacterial growth inhibition after 24 hrs by broth dilution method; details: ATCC25923, 24 h
Pseudomonas aeruginosa = experiment: Antibacterial activity against Pseudomonas aeruginosa ATCC2785 assessed as bacterial growth inhibition after 24 hrs by broth dilution method; details: ATCC2785, 24 h

SMILES | MIC (Staphylococcus aureus [1]) [µg/mL] | MIC (Staphylococcus aureus [2]) [µg/mL] | MIC (Staphylococcus aureus [3]) [µg/mL] | MIC [4] [µg/mL] | MIC (Staphylococcus aureus [5]) [µg/mL] | MIC (Bacillus subtilis) [µg/mL] | MIC (Escherichia coli) [µg/mL] | MIC (Staphylococcus aureus [6]) [µg/mL] | MIC (Staphylococcus aureus [7]) [µg/mL] | MIC (Proteus vulgaris) [µg/mL] | MIC (Staphylococcus aureus [8]) [µg/mL] | MIC (Staphylococcus aureus [9]) [µg/mL] | MIC (Staphylococcus aureus [10]) [µg/mL] | MIC (Staphylococcus aureus [11]) [µg/mL] | MIC (Pseudomonas aeruginosa) [µg/mL]
CC1(C)S[C@@H]2[C@H](NC(=O)Cc3ccccc3)C(=O)N2[C@H]1C(=O)O [PENICILLIN G] | 32 (≈ 95.7 µM) | 32 (≈ 95.7 µM) | 32 (≈ 95.7 µM) | 2 (≈ 5.98 µM) | 32 (≈ 95.7 µM) | 2 (≈ 5.98 µM) | 64 (≈ 191 µM) | 32 (≈ 95.7 µM) | 32 (≈ 95.7 µM) | > 16 | 64 (≈ 191 µM) | 32 (≈ 95.7 µM) | 32 (≈ 95.7 µM) | 2 (≈ 5.98 µM) | 16 (≈ 47.8 µM)
COC(=O)c1c(/C=C/c2cc(OC)c(OC)c(OC)c2)cc(OC)c(CC=C(C)C)c1O | > 128 | > 128 | 128 (≈ 289 µM) | 64 (≈ 145 µM) | > 128 | > 128 | > 128 | 64 (≈ 145 µM) | > 128 | > 128 | > 128 | > 128 | > 128 | > 128 | > 128
COc1cc(C)c(C(=O)O)c(O)c1CC=C(C)C | 32 (≈ 128 µM) | 32 (≈ 128 µM) | 32 (≈ 128 µM) | 64 (≈ 256 µM) | 32 (≈ 128 µM) | 64 (≈ 256 µM) | > 128 | 32 (≈ 128 µM) | 32 (≈ 128 µM) | > 128 | 64 (≈ 256 µM) | 32 (≈ 128 µM) | 64 (≈ 256 µM) | 32 (≈ 128 µM) | > 128
COC(=O)c1c(/C=C/c2ccccc2F)cc(OC)c(CC=C(C)C)c1O | 128 (≈ 346 µM) | > 128 | > 128 | > 128 | 128 (≈ 346 µM) | > 128 | > 128 | > 128 | 128 (≈ 346 µM) | > 128 | > 128 | 128 (≈ 346 µM) | > 128 | > 128 | > 128
COc1cc(/C=C/c2ccccc2)c(C(=O)O)c(O)c1CC=C(C)C | 16 (≈ 47.3 µM) | 32 (≈ 94.6 µM) | 16 (≈ 47.3 µM) | 16 (≈ 47.3 µM) | 16 (≈ 47.3 µM) | 32 (≈ 94.6 µM) | > 128 | 32 (≈ 94.6 µM) | 16 (≈ 47.3 µM) | > 64 | 16 (≈ 47.3 µM) | 8 (≈ 23.6 µM) | 32 (≈ 94.6 µM) | 16 (≈ 47.3 µM) | > 64
COc1cc(O)c(C(=O)O)c(/C=C/c2cccc(F)c2)c1 | > 128 | 128 (≈ 444 µM) | > 128 | 64 (≈ 222 µM) | > 128 | > 128 | > 128 | > 128 | > 128 | > 128 | > 128 | > 128 | > 128 | > 128 | > 128
COc1cc(O)c(C(=O)O)c(/C=C/c2ccccc2)c1 | > 128 | > 128 | > 128 | > 128 | > 128 | 64 (≈ 237 µM) | > 128 | > 128 | > 128 | > 128 | 128 (≈ 474 µM) | 128 (≈ 474 µM) | > 128 | > 128 | > 128
COC(=O)c1c(/C=C/c2ccc(OC)cc2)cc(OC)c(CC=C(C)C)c1O | 128 (≈ 335 µM) | 128 (≈ 335 µM) | > 128 | > 128 | 128 (≈ 335 µM) | > 128 | > 128 | > 128 | 128 (≈ 335 µM) | > 128 | 128 (≈ 335 µM) | > 128 | 128 (≈ 335 µM) | 128 (≈ 335 µM) | > 128
COC(=O)c1c(/C=C/c2ccc(C(F)(F)F)cc2)cc(OC)c(CC=C(C)C)c1O | 128 (≈ 304 µM) | 64 (≈ 152 µM) | > 128 | 64 (≈ 152 µM) | > 128 | 128 (≈ 304 µM) | > 128 | > 128 | 64 (≈ 152 µM) | > 128 | 128 (≈ 304 µM) | 128 (≈ 304 µM) | > 128 | 64 (≈ 152 µM) | > 128
COc1cc(/C=C/c2ccc(C)cc2)c(C(=O)O)c(O)c1CC=C(C)C | 8 (≈ 22.7 µM) | 32 (≈ 90.8 µM) | 16 (≈ 45.4 µM) | 32 (≈ 90.8 µM) | 32 (≈ 90.8 µM) | 16 (≈ 45.4 µM) | > 128 | 32 (≈ 90.8 µM) | 16 (≈ 45.4 µM) | > 64 | 16 (≈ 45.4 µM) | 32 (≈ 90.8 µM) | 32 (≈ 90.8 µM) | 16 (≈ 45.4 µM) | > 64
COC(=O)c1c(O)cc(OC)cc1/C=C/c1ccc(C(F)(F)F)cc1 | 128 (≈ 363 µM) | > 128 | > 128 | 128 (≈ 363 µM) | > 128 | > 128 | > 128 | > 128 | > 128 | > 128 | > 128 | > 128 | > 128 | > 128 | > 128
COC(=O)c1c(O)cc(OC)cc1/C=C/c1ccc(F)cc1F | > 128 | > 128 | 128 (≈ 400 µM) | > 128 | 128 (≈ 400 µM) | > 128 | > 128 | > 128 | 128 (≈ 400 µM) | > 128 | > 128 | > 128 | > 128 | > 128 | > 128
COC(=O)c1c(O)cc(OC)cc1/C=C/c1cccc(C#N)c1 | > 128 | > 128 | 128 (≈ 414 µM) | > 128 | > 128 | > 128 | > 128 | 64 (≈ 207 µM) | > 128 | > 128 | > 128 | > 128 | > 128 | > 128 | > 128
COc1cc(/C=C/c2ccc(Cl)cc2)c(C(=O)O)c(O)c1CC=C(C)C | 4 (≈ 10.7 µM) | 4 (≈ 10.7 µM) | 0.5 (≈ 1.34 µM) | 4 (≈ 10.7 µM) | 2 (≈ 5.36 µM) | 2 (≈ 5.36 µM) | 128 (≈ 343 µM) | 4 (≈ 10.7 µM) | 4 (≈ 10.7 µM) | > 64 | 2 (≈ 5.36 µM) | 2 (≈ 5.36 µM) | 1 (≈ 2.68 µM) | 8 (≈ 21.5 µM) | > 64
COC(=O)c1c(O)cc(OC)cc1/C=C/c1ccc(F)cc1 | > 128 | > 128 | > 128 | > 128 | > 128 | > 128 | > 128 | 128 (≈ 423 µM) | > 128 | > 128 | > 128 | > 128 | > 128 | > 128 | > 128
